{"source": "patent US9237747B2", "about": "“Herbicidal compositions comprising 4-amino-3-chloro-5-fluoro-6-(4-chloro-2-fluoro-3-methoxyphenyl) pyridine-2-carboxylic acid or a derivative thereof and insecticides” (priority 2013, dated 2016)", "key": {"ECHCO": {"system": "ECHCO", "experiment": "Postemergence foliar-applied weed control, direct-seeded rice (greenhouse)", "type": "in vivo, Echinochloa colonum", "procedure,_shortened": "(§1)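 Values are visual percent injury or growth inhibition relative to untreated plants, scored ~3 weeks after postemergence spraying, with Colby-expected mixture values computed as A+B−(A×B/100). Treatments were SC-formulated Compound A acid or esters plus insecticidal partners, applied in 1.25% v/v crop oil concentrate at 187 L/ha.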"}, "LEFCH": {"system": "LEFCH", "experiment": "whole plant or invertebrate", "type": "in vivo, Leptochloa chinensis", "procedure,_shortened": "as §1"}}, "note": "Values joined by “and” are separate entries in the source; they are usually repeats but may differ in a detail not shown here. Equal entries are not always repeated. Where two headings read alike, the source gives them in different places."}
{"smiles": "COc1c(Cl)ccc(-c2nc(C(=O)O)c(Cl)c(N)c2F)c1F", "note": "[Compound A Acid, 4-amino-3-chloro-6-(4-chloro-2-fluoro-3-methoxyphenyl)-5-fluoropyridine-2-carboxylic acid]", "values": [{"measurement": "Visual Weed Control (%) - 22 DAA ECHCO Obs", "setting": "ECHCO; 4.38 g ae/ha alone", "result": 55, "unit": "%"}, {"measurement": "Visual Weed Control (%) - 21 DAA ECHCO Obs", "setting": "ECHCO; 4.38 g ae/ha alone", "result": 60, "unit": "%"}, {"measurement": "Visual Weed Control (%) - 21 DAA ECHCO Obs", "setting": "ECHCO; 8.75 g ae/ha alone", "result": 90, "unit": "%"}, {"measurement": "Visual Weed Control (%) - 21 DAA ECHCO Obs", "setting": "ECHCO; 17.5 g ae/ha alone", "result": 95, "unit": "%"}, {"measurement": "Visual Weed Control (%) - 20 DAA LEFCH Obs", "setting": "LEFCH; 4.38 g ae/ha alone", "result": 0, "unit": "%"}, {"measurement": "Visual Weed Control (%) - 20 DAA LEFCH Obs", "setting": "LEFCH; 5.3 g ae/ha alone", "result": 0, "unit": "%"}, {"measurement": "Visual Weed Control (%) - 20 DAA LEFCH Obs", "setting": "LEFCH; 10.6 g ae/ha alone", "result": 20, "unit": "%"}, {"measurement": "Visual Weed Control (%) - 21 DAA LEFCH Obs", "setting": "LEFCH; 21 DAA, 8.75 g ae/ha alone", "result": 30, "unit": "%"}, {"measurement": "Visual Weed Control (%) - 21 DAA LEFCH Obs", "setting": "LEFCH; 21 DAA, 17.5 g ae/ha alone", "result": 30, "unit": "%"}, {"measurement": "Visual Weed Control (%) - 20 DAA LEFCH Obs", "setting": "LEFCH; 21.2 g ae/ha alone", "result": 45, "unit": "%"}]}
{"smiles": "COc1c(Cl)ccc(-c2nc(C(=O)OCc3ccccc3)c(Cl)c(N)c2F)c1F", "note": "[Compound A Benzyl Ester]", "values": [{"measurement": "Visual Weed Control (%) - 19 DAA ECHCO Obs", "setting": "ECHCO; 8 g ae/ha alone", "result": 65, "unit": "%"}, {"measurement": "Visual Weed Control (%) - 20 DAA ECHCO Obs", "setting": "ECHCO; 8 g ae/ha alone", "result": 65, "unit": "%"}, {"measurement": "Visual Weed Control (%) - 19 DAA ECHCO Obs", "setting": "ECHCO; 16 g ae/ha alone", "result": 90, "unit": "%"}, {"measurement": "Visual Weed Control (%) - 19 DAA ECHCO Obs", "setting": "ECHCO; 19 DAA, 8 g ae/ha alone", "result": 65, "unit": "%"}, {"measurement": "Visual Weed Control (%) - 19 DAA ECHCO Obs", "setting": "ECHCO; 19 DAA, 16 g ae/ha alone", "result": 90, "unit": "%"}, {"measurement": "Visual Weed Control (%) - 19 DAA ECHCO Obs", "setting": "ECHCO; 19 DAA, 32 g ae/ha alone", "result": 95, "unit": "%"}, {"measurement": "Visual Weed Control (%) - 19 DAA ECHCO Obs", "setting": "ECHCO; 32 g ae/ha alone", "result": 95, "unit": "%"}, {"measurement": "Visual Weed Control (%) - 20 DAA LEFCH Obs", "setting": "LEFCH; 4.38 g ae/ha alone", "result": "15% and 20%"}, {"measurement": "Visual Weed Control (%) - 21 DAA LEFCH Obs", "setting": "LEFCH; 4.38 g ae/ha alone", "result": 10, "unit": "%"}, {"measurement": "Visual Weed Control (%) - 19 DAA LEFCH Obs", "setting": "LEFCH; 8 g ae/ha alone", "result": 45, "unit": "%"}, {"measurement": "Visual Weed Control (%) - 20 DAA LEFCH Obs", "setting": "LEFCH; 8 g ae/ha alone", "result": 15, "unit": "%"}, {"measurement": "Visual Weed Control (%) - 20 DAA LEFCH Obs", "setting": "LEFCH; 8.75 g ae/ha alone", "result": "30% and 35%"}, {"measurement": "Visual Weed Control (%) - 21 DAA LEFCH Obs", "setting": "LEFCH; 8.75 g ae/ha alone", "result": 25, "unit": "%"}, {"measurement": "Visual Weed Control (%) - 19 DAA LEFCH Obs", "setting": "LEFCH; 16 g ae/ha alone", "result": 45, "unit": "%"}, {"measurement": "Visual Weed Control (%) - 20 DAA LEFCH Obs", "setting": "LEFCH; 16 g ae/ha alone", "result": 25, "unit": "%"}, {"measurement": "Visual Weed Control (%) - 20 DAA LEFCH Obs", "setting": "LEFCH; 17.5 g ae/ha alone", "result": "50% and 60%"}, {"measurement": "Visual Weed Control (%) - 21 DAA LEFCH Obs", "setting": "LEFCH; 17.5 g ae/ha alone", "result": 30, "unit": "%"}, {"measurement": "Visual Weed Control (%) - 19 DAA LEFCH Obs", "setting": "LEFCH; 19 DAA, 8 g ae/ha alone", "result": 45, "unit": "%"}, {"measurement": "Visual Weed Control (%) - 19 DAA LEFCH Obs", "setting": "LEFCH; 19 DAA, 16 g ae/ha alone", "result": 45, "unit": "%"}, {"measurement": "Visual Weed Control (%) - 19 DAA LEFCH Obs", "setting": "LEFCH; 19 DAA, 32 g ae/ha alone", "result": 50, "unit": "%"}, {"measurement": "Visual Weed Control (%) - 21 DAA LEFCH Obs", "setting": "LEFCH; 21 DAA, 8 g ae/ha alone", "result": 15, "unit": "%"}, {"measurement": "Visual Weed Control (%) - 21 DAA LEFCH Obs", "setting": "LEFCH; 21 DAA, 16 g ae/ha alone", "result": 15, "unit": "%"}, {"measurement": "Visual Weed Control (%) - 21 DAA LEFCH Obs", "setting": "LEFCH; 21 DAA, 17.5 g ae/ha alone", "result": 50, "unit": "%"}, {"measurement": "Visual Weed Control (%) - 21 DAA LEFCH Obs", "setting": "LEFCH; 21 DAA, 32 g ae/ha alone", "result": 25, "unit": "%"}, {"measurement": "Visual Weed Control (%) - 19 DAA LEFCH Obs", "setting": "LEFCH; 32 g ae/ha alone", "result": 50, "unit": "%"}, {"measurement": "Visual Weed Control (%) - 20 DAA LEFCH Obs", "setting": "LEFCH; 32 g ae/ha alone", "result": 30, "unit": "%"}, {"measurement": "pest or weed control at 4.38 g/ha", "setting": "LEFCH; Dinebra chinensis, post-emergence, 528 h, 4.38 g ae/ha alone, read-out: Visual Weed Control (%) - 22 DAA LEFCH Obs", "result": 30, "unit": "%"}, {"measurement": "pest or weed control at 8 g/ha", "setting": "LEFCH; Dinebra chinensis, post-emergence, 528 h, 8 g ae/ha alone, read-out: Visual Weed Control (%) - 22 DAA LEFCH Obs", "result": 25, "unit": "%"}, {"measurement": "pest or weed control at 16 g/ha", "setting": "LEFCH; Dinebra chinensis, post-emergence, 528 h, 16 g ae/ha alone, read-out: Visual Weed Control (%) - 22 DAA LEFCH Obs", "result": 30, "unit": "%"}, {"measurement": "pest or weed control at 8 g/ha", "setting": "LEFCH; Dinebra chinensis, post-emergence, 528 h, 22 DAA, 8 g ae/ha alone, second part of Table 18, read-out: Visual Weed Control (%) - 22 DAA LEFCH Obs", "result": 18, "unit": "%"}, {"measurement": "pest or weed control at 16 g/ha", "setting": "LEFCH; Dinebra chinensis, post-emergence, 528 h, 22 DAA, 16 g ae/ha alone, read-out: Visual Weed Control (%) - 22 DAA LEFCH Obs", "result": 25, "unit": "%"}, {"measurement": "pest or weed control at 16 g/ha", "setting": "LEFCH; Dinebra chinensis, post-emergence, 528 h, 22 DAA, 16 g ae/ha alone, second part of Table 18, read-out: Visual Weed Control (%) - 22 DAA LEFCH Obs", "result": 43, "unit": "%"}, {"measurement": "pest or weed control at 32 g/ha", "setting": "LEFCH; Dinebra chinensis, post-emergence, 528 h, 22 DAA, 32 g ae/ha alone, read-out: Visual Weed Control (%) - 22 DAA LEFCH Obs", "result": 55, "unit": "%"}, {"measurement": "pest or weed control at 32 g/ha", "setting": "LEFCH; Dinebra chinensis, post-emergence, 528 h, 22 DAA, 32 g ae/ha alone, second part of Table 18, read-out: Visual Weed Control (%) - 22 DAA LEFCH Obs", "result": 53, "unit": "%"}, {"measurement": "pest or weed control at 32 g/ha", "setting": "LEFCH; Dinebra chinensis, post-emergence, 528 h, 32 g ae/ha alone, read-out: Visual Weed Control (%) - 22 DAA LEFCH Obs", "result": 60, "unit": "%"}]}
{"smiles": "CC(c1ccc(C(F)(F)F)nc1)S(C)(=O)=NC#N", "note": "(stereo not drawn) [Sulfoxaflor, N-[methyloxido[1-[6-(trifluoromethyl)-3-pyridinyl]ethyl]-λ^4-sulfanylidene]cyanamide]", "values": [{"measurement": "Visual Weed Control (%) - 21 DAA ECHCO Obs", "setting": "ECHCO; 12.5 g ai/ha alone", "result": 0, "unit": "%"}, {"measurement": "Visual Weed Control (%) - 21 DAA ECHCO Obs", "setting": "ECHCO; 25 g ai/ha alone", "result": 0, "unit": "%"}, {"measurement": "Visual Weed Control (%) - 21 DAA ECHCO Obs", "setting": "ECHCO; 50 g ai/ha alone", "result": 0, "unit": "%"}, {"measurement": "Visual Weed Control (%) - 21 DAA LEFCH Obs", "setting": "LEFCH; 21 DAA, 12.5 g ai/ha alone", "result": 0, "unit": "%"}, {"measurement": "Visual Weed Control (%) - 21 DAA LEFCH Obs", "setting": "LEFCH; 21 DAA, 25 g ai/ha alone", "result": 0, "unit": "%"}, {"measurement": "Visual Weed Control (%) - 21 DAA LEFCH Obs", "setting": "LEFCH; 21 DAA, 37.5 g ai/ha alone", "result": 0, "unit": "%"}, {"measurement": "Visual Weed Control (%) - 21 DAA LEFCH Obs", "setting": "LEFCH; 21 DAA, 50 g ai/ha alone", "result": 0, "unit": "%"}, {"measurement": "Visual Weed Control (%) - 21 DAA LEFCH Obs", "setting": "LEFCH; 21 DAA, 75 g ai/ha alone", "result": 0, "unit": "%"}, {"measurement": "Visual Weed Control (%) - 21 DAA LEFCH Obs", "setting": "LEFCH; 21 DAA, 150 g ai/ha alone", "result": 0, "unit": "%"}]}
